The values below are quoted from earlier work in patent US20170326139A1, “COMBINATION THERAPY FOR MALE SEXUAL DYSFUNCTION” (priority 2016, published 2017).

Where two headings read alike, the source gives them in different places.

Data set [1] has as its system premature ejaculation. Conditions: in vivo.
The subject of data set [2] is premature ejaculation.
Data set [3] deals with premature ejaculation. The source holds these as a separate data set.

With `CNCC[C@H](Oc1cccc2ccccc12)c1cccs1` [duloxetine], the “effect on IELT” value in the data set on premature ejaculation [1] is “some positive effect on IELT”. Consider `CCCc1nn(C)c2c(=O)[nH]c(-c3cc(S(=O)(=O)N4CCN(C)CC4)ccc3OCC)nc12` [sildenafil], for which the “effect on PE versus placebo” value in the data set on premature ejaculation [2] (sildenafil 50 mg pre-coitus administered alone) is listed as “no better than placebo”. Further, in the data set with premature ejaculation [2] (sildenafil 50 mg pre-coitus combined with behavioral psychotherapy), the IELT result was “about 3.63 minutes”. Regarding `CN(C)CCCN1c2ccccc2CCc2ccc(Cl)cc21` [clomipramine], the “effect in treating PE” value with premature ejaculation [3] (inhaled (nasal) 4 mg or 5 mg on-demand, e.g. one hour pre-coitus) was “effective in treating PE”. For the same compound, the “effect on IELT” value in the data set on premature ejaculation [3] (orally administered daily at 10 to 50 mg per day) is “effectively increase IELT”.
